Laboratory results reported in PMC2364081, “Antagonists of retinoic acid receptors (RARs) are potent growth inhibitors of prostate carcinoma cells” (British Journal of Cancer, 2001).
Like-named read-outs stand apart in the source and are kept apart here.

Key:
LNCaP cells = conditions: cited from earlier work
PC-3 cells = test system: PC-3 cells; set-up: method as in Pienta et al, 1993; Heish and Wu, 1997; conditions: ref Pienta et al, 1993; Heish and Wu, 1997; cited from earlier work
RARα [1] = molecular target: T1, RARα (Homo sapiens, UniProt P10276); assay: Binding to baculovirus-expressed RARα; set-up: made in house; conditions: baculovirus-expressed receptor
T1 sequence (P10276 1-462): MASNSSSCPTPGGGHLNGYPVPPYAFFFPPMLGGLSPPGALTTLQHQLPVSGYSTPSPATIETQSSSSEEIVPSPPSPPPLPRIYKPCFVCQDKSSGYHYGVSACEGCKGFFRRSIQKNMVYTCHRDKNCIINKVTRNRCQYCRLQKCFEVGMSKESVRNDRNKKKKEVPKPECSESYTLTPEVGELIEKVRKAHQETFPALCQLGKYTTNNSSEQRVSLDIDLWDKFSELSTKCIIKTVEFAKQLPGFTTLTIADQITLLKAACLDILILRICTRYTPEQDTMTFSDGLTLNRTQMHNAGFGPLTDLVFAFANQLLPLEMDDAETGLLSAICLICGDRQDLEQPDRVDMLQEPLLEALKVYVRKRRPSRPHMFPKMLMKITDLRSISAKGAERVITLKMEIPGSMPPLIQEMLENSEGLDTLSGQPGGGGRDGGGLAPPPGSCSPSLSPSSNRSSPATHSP
Description: (§1) Prostate cancer is one of the most common cancers in European and American males and has a high mortality rate (Landis et al, 1998; Rosenthal, 1998). Early disease is managed conservatively in Europe although in selected patients surgery is curative. In advanced disease, androgen ablation can produce symptomatic improvement, but the tumour often re-emerges in an androgen- independent and incurable form. One proposed treatment for androgen-independent prostate carcinoma is differentiation ther- apy, in which agents such as all-trans-retinoic acid (ATRA), 9-cis- retinoic acid and 1, 25-dihydroxyvitamin D3 (D3 ) are used to induce growth arrest, differentiation and sometimes apoptosis of the tumour cells (Liang et al, 1999; de Vos et al, 1997; Skowronski et al, 1994; Hedlund et al, 1997). ATRA and synthetic analogues exert their biological effects by binding to two families of retinoid receptors, […]. These are ligand-dependent transcription factors of the steroid/thyroid hormone nuclear receptor superfamily (Chambon 1994; Boehm et al, 1995). Activated RARs bind to retinoic acid-responsive elements (RAREs) in the promoters of genes and thus regulate gene expression. They also antagonize the activity of the tran- scription factor AP1 and thereby down-regulate the expression of some AP1-activated genes (Nagpal et al, 1995). One approach to unravelling the contributions of RAR sub-types to these actions has been the development of synthetic retinoids with selective activities at individual RARs and RXRs. For example, the diaryl- acetylenic retinoids allow separation of transactivation and AP1 antagonism functions at RAR (Nagpal et al, 1995). Recently, compounds that are selective for particular RAR sub-types have been synthesized: these include both agonists and antagonists (Chandraratna, 1995; Teng et al, 1999; Johnson et al, 1999). The functional selectivity of these compounds may open the way to achieving differentiation or apoptosis of tumour cells with minimal systemic side effects (Chandraratna, 1995). Cell lines that are commonly used in the evaluation of investiga- tional agents for prostate cancer include LNCaP, DU-145 and PC- 3. […] These lines are relatively insensitive to growth inhibition and induction of apoptosis by ATRA and by synthetic agonists. […] Fenretinide (4HPR) induces apoptosis of LNCaP and of PC-3 cells at 1-5 M and 25 µM, respectively (Pienta et al, 1993; Heish and Wu, 1997). Pfahl and colleagues examined the growth inhibitory effects of a panel of receptor-selective retinoids against DU145 and PC-3 cells and achieved complete growth inhibition and induction of apoptosis between 1 M and 10 M (Lu et al, 1999). […] Antagonists of retinoic acid receptors (RARs) are potent growth inhibitors of prostate carcinoma cells LA Hammond1 , CH Van Krinks2 , J Durham2 , SE Tomkins2 , RD Burnett3 , EL Jones1 , RAS Chandraratna3 and G Brown2 Divisions of 1 Cancer Studies and of 2 Immunity and Infection, University of Birmingham Medical School, Edgbaston, Birmingham B15 2TT, UK and 3 Retinoid Research, Allergan Inc., Irvine, California, USA Summary Novel synthetic antagonists of retinoic acid receptors (RARs) have been developed. To avoid interference by serum retinoids when testing these compounds, we established serum-free grown sub-lines (>3 years) of the prostate carcinoma lines LNCaP, PC3 and DU145. […] A component(s) of serum and of LNCaP-conditioned medium diminishes the activity of antagonists: this factor is not the most likely candidates IGF-1 and EGF. In vitro studies of RAR antagonists together with data from RAR-null mice lead to the hypothesis that RAR-regulated gene transcription is necessary for the survival and maintenance of prostate epithelium. […]

RARβ [2] = molecular target: T2, RARβ (Homo sapiens, UniProt P10826); assay: Binding to baculovirus-expressed RARβ; set-up: made in house; conditions: baculovirus-expressed receptor
T2 sequence (P10826 1-455): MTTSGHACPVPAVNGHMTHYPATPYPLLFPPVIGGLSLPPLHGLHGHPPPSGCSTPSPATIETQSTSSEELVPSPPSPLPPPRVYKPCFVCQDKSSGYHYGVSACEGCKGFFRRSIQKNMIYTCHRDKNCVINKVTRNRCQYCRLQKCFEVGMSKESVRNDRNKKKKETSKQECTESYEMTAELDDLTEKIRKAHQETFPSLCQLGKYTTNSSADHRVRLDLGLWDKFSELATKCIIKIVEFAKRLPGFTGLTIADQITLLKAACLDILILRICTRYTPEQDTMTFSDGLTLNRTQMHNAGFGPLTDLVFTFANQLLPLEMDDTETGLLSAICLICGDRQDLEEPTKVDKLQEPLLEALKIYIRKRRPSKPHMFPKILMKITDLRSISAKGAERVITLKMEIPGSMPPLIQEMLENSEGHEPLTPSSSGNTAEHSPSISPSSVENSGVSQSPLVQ
Description: as §1

RARγ = molecular target: T3, RARγ (Homo sapiens, UniProt P13631); assay: Binding to baculovirus-expressed RARγ; set-up: made in house; conditions: baculovirus-expressed receptor
T3 sequence (P13631 1-454): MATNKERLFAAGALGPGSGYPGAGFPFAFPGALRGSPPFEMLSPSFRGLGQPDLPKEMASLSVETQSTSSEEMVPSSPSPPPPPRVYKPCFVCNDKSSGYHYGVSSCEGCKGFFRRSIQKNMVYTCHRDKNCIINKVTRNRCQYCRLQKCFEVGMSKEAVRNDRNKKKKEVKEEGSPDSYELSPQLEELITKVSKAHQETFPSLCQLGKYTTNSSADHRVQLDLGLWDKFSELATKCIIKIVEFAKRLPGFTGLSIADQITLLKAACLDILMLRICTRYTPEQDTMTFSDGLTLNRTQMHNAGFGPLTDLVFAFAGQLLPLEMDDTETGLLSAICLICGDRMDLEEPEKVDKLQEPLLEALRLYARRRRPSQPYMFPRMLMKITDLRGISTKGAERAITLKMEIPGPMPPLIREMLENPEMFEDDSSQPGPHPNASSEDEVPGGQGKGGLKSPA
Description: as §1

RARα [3] = molecular target: T1, RARα; assay: Transactivation by RARα in doubly transfected CV-1 cells (MTV-TREp-LUC reporter); type: cell-based; set-up: expressed in transfected cells; host or cells: CV-1 cells
Description: (§2) Prostate cancer is one of the most common cancers in European and American males and has a high mortality rate (Landis et al, 1998; Rosenthal, 1998). Early disease is managed conservatively in Europe although in selected patients surgery is curative. In advanced disease, androgen ablation can produce symptomatic improvement, but the tumour often re-emerges in an androgen- independent and incurable form. One proposed treatment for androgen-independent prostate carcinoma is differentiation ther- apy, in which agents such as all-trans-retinoic acid (ATRA), 9-cis- retinoic acid and 1, 25-dihydroxyvitamin D3 (D3 ) are used to induce growth arrest, differentiation and sometimes apoptosis of the tumour cells (Liang et al, 1999; de Vos et al, 1997; Skowronski et al, 1994; Hedlund et al, 1997). ATRA and synthetic analogues exert their biological effects by binding to two families of retinoid receptors, the RARs (RAR, RAR and RAR) and the RXRs (RXR, RXR and RXR). These are ligand-dependent transcription factors of the steroid/thyroid hormone nuclear receptor superfamily (Chambon 1994; Boehm et al, 1995). Activated RARs bind to retinoic acid-responsive elements (RAREs) in the promoters of genes and thus regulate gene expression. They also antagonize the activity of the tran- scription factor AP1 and thereby down-regulate the expression of some AP1-activated genes (Nagpal et al, 1995). One approach to unravelling the contributions of RAR sub-types to these actions has been the development of synthetic retinoids with selective activities at individual RARs and RXRs. For example, the diaryl- acetylenic retinoids allow separation of transactivation and AP1 antagonism functions at RAR (Nagpal et al, 1995). Recently, compounds that are selective for particular RAR sub-types have been synthesized: these include both agonists and antagonists (Chandraratna, 1995; Teng et al, 1999; Johnson et al, 1999). The functional selectivity of these compounds may open the way to achieving differentiation or apoptosis of tumour cells with minimal systemic side effects (Chandraratna, 1995). […]

RARβ [4] = molecular target: T2, RARβ; assay: Transactivation by RARβ in doubly transfected CV-1 cells (MTV-TREp-LUC reporter); type: cell-based; set-up: expressed in transfected cells; host or cells: CV-1 cells; key to EC50 transactivation RARβ: NA: inactive; WA: weak partial agonist
Description: as §2

[5] = test system: LNCaP, PC3 and DU145 cells; assay: Plate colony formation assay, stated over the three serum-free grown lines; type: cell-based, human
Description: as §1

FBS-grown DU145 cells = assay: Plate colony formation assay, FBS-grown DU145; type: cell-based, human; set-up: dose or concentration left out as unconfirmed; conditions: ATRA
Description: as §2, with “1995).” for “1995). One approach to unravelling the contributions of RAR sub-types to these actions has been the development of synthetic retinoids with selective activities at individual RARs and RXRs. For example, the diaryl- acetylenic retinoids allow separation of transactivation and AP1 antagonism functions at RAR (Nagpal et al, 1995). Recently, compounds that are selective for particular RAR sub-types have been synthesized: these include both agonists and antagonists (Chandraratna, 1995; Teng et al, 1999; Johnson et al, 1999). The functional selectivity of these compounds may open the way to achieving differentiation or apoptosis of tumour cells with minimal systemic side effects (Chandraratna, 1995).”

PC-3 and DU-145 cells = test system: PC-3 and DU-145 cells; set-up: method as in Lu et al, 1997 and 1999; dose or concentration left out as unconfirmed; conditions: ref Lu et al, 1997 and 1999; cited from earlier work
LNCaP ITS+ cells = assay: Plate colony formation (clonal proliferation) assay, serum-free (ITS+)-grown LNCaP; type: cell-based, human
Description: as §1

PC3 ITS+ cells = assay: Plate colony formation assay, serum-free (ITS+)-grown PC3; type: cell-based, human; conditions: 14 days
Description: as §2

DU145 ITS+ cells = assay: Plate colony formation assay, serum-free (ITS+)-grown DU145; type: cell-based, human; conditions: 14 days
Description: as §2

For `CC1=C(/C=C/C(C)=C/C=C/C(C)=C/C(=O)Nc2ccc(O)cc2)C(C)(C)CCC1` [Fenretinide], the concentration inducing apoptosis (LNCaP cells; ref Pienta et al, 1993, Heish and Wu, 1997) is given as 1 to 5 µM and the concentration inducing apoptosis (PC-3 cells) is given as 25 µM.

Molecule `CC1(C)CCC(C)(C)c2cc(C(=O)Nc3cc(F)c(C(=O)O)c(F)c3)c(O)cc21` [AGN194078] has a Kd (RARα [1]) of 4 nM, a Kd (RARβ [2]) of over 5000 nM and a Kd (RARγ) of over 5000 nM. For the same molecule, the EC50 (RARα [3]) was 140 nM and the “EC50 transactivation RARβ” value (RARβ [4]) was “WA”.

In the case of `CC1=C(/C=C/C(C)=C/C=C/C(C)=C/C(=O)O)C(C)(C)CCC1` [ATRA, all-trans retinoic acid], the “effect on colony formation” value ([5]; 100 nM, three cell lines, ITS+ and FBS cells) is listed as “little effect”, the “reduction in colony formation” value (FBS-grown DU145 cells) is listed as under 1% and the concentration inducing apoptosis (LNCaP cells; ref Gao et al, 1999) is listed as 2 µM. The “growth inhibition and apoptosis” value (PC-3 and DU-145 cells) was “neither inhibits the growth nor induces apoptosis”.

Molecule `Cc1ccc(C2=CCC(C)(C)c3ccc(N=Nc4ccc(C(=O)O)cc4F)cc32)cc1` [AGN194431] has an IC50 (LNCaP ITS+ cells; LNCaP, serum-free (ITS+), 14 days) of 99 nM, an IC50 (PC3 ITS+ cells) of 104 nM and an IC50 (DU145 ITS+ cells) of 88 nM. For the same molecule, the IC50 ([5]; stated over all three serum-free grown lines, read-out: concentration inhibiting colony formation by 50% (IC50)) was about 100 nM, the Kd (RARα [1]) was 300 nM and the Kd (RARβ [2]) was 6 nM. It also gave a Kd (RARγ) of 70 nM.

With `C/C(=C\c1ccc(C(=O)O)cc1)c1ccc2c(c1)C(C)(C)CCC2(C)C` [TTNPB, reference compound] the “inhibition of colony formation” value (LNCaP ITS+ cells; TTNPB alone at 10 -6 M) was over 90% and the “inhibition of colony formation” value (LNCaP ITS+ cells; TTNPB alone at 10 -7 M) was ~ 10%.
